# Assay results as given in patent publication US9555029B2 (HIKMA PHARMACEUTICALS, priority 2013, dated 2017).
# Where two headings read alike, the source gives them in different places.
# Key:
# [1] = Colchicine pharmacokinetics coadministered with fluconazole
# Description: The inhibitor dosage form was an oral 200 mg tablet of Diflucan® (fluconazole, from Pfizer).
# The fluconazole trial differed from the Example 2 protocol as follows.
# [2] = cited from earlier work; for Kel / T1/2el: arithmetic mean; for AUCT / Cmax: geometric mean
# [3] = cited from earlier work; for AUCT / Cmax: geometric mean
# [4] = cited from earlier work; for Kel / T1/2el: arithmetic mean; for AUCT / Cmax: geometric mean; remark: listed apart in the source
# clinical [5] = conditions: human, plasma, oral
# clinical [6] = conditions: male, human, in vivo
# Description: Subjects were included only if they were not older than 45 years (as opposed to no upper limit). Also, in inclusion criteria the lower threshold for the body mass index was 21.00 (as opposed to 18.00) kg/m^2.
# [7] = cited from earlier work
# [8] = Treatment-1 (day 1): colchicine 0.6 mg alone, fasted, fluconazole study, mean
# [9] = Treatment-2 (day 9): colchicine 0.6 mg + fluconazole 200 mg after double dose day 4, once daily days 5-8, fasted, mean
# [10] = co-administration of fluconazole vs colchicine alone
# [11] = Treatment-1: colchicine 0.6 mg alone (day 1, fasted), diltiazem ER study
# [12] = Treatment-2: colchicine 0.6 mg (day 21) + diltiazem ER 240 mg once daily (days 15-21)
# [13] = Treatment-1: colchicine 0.6 mg alone (day 1, fasted), ketoconazole study, arithmetic mean
# [14] = Treatment-1: colchicine 0.6 mg alone (day 1, fasted), ketoconazole study
# [15] = Treatment-2: colchicine 0.6 mg (day 19) + ketoconazole 200 mg twice daily
# [16] = Treatment-1: colchicine 0.6 mg alone (day 1, fasted), clarithromycin study
# [17] = Treatment-2: colchicine 0.6 mg + clarithromycin 250 mg twice daily (days 22-29)
smiles,measurement,setting,value
"COc1cc2c(c(OC)c1OC)-c1ccc(OC)c(=O)cc1[C@@H](NC(C)=O)CC2 [Colchicine, (S)N-(5,6,7,9-tetrahydro-1,2,3,10-tetramethoxy-9-oxobenzo[alpha]heptalen-7-yl)acetamide]",AUCT/∞,[1]; [8],85.33%
same,Kel,[1]; [8],0.0206 h⁻¹
same,T1/2el,[1]; [8],34.05 h
same,AUCT/∞,[1]; [9],83.54%
same,Kel,[1]; [9],0.0204 h⁻¹
same,T1/2el,[1]; [9],34.51 h
same,Increase of mean Cmax for colchicine,[1]; [10],13%
same,Increase of overall exposure of colchicine (AUC),[1]; [10],40%
same,CL/F,"[1]; male, human, in vivo, 0.6 mg",610 mL/min
same,Tmax,"[1]; male, human, in vivo, 0.6 mg",1.25 h
same,Vd/F,"[1]; male, human, in vivo, 0.6 mg",1810 L
same,AUC(0-t),"[1]; male, human, in vivo, 0.6 mg, AUCT GEOMETRIC LSMEANS, Treatment-1: colchicine 0.6 mg alone, fluconazole study",14.5 ng·h/mL
same,AUC(0-t),"[1]; male, human, in vivo, 0.6 mg, AUCT, Treatment-1 (day 1): colchicine 0.6 mg alone, fasted, fluconazole study, mean",14.9 ng·h/mL
same,AUC(0-inf),"[1]; male, human, in vivo, 0.6 mg, AUC∞ GEOMETRIC LSMEANS, Treatment-1: colchicine 0.6 mg alone, fluconazole study",17 ng·h/mL
same,AUC(0-inf),"[1]; male, human, in vivo, 0.6 mg, AUC∞, Treatment-1 (day 1): colchicine 0.6 mg alone, fasted, fluconazole study, mean",17.5 ng·h/mL
same,Cmax,"[1]; male, human, in vivo, 0.6 mg, Cmax GEOMETRIC LSMEANS, Treatment-1: colchicine 0.6 mg alone, fluconazole study",1.81 ng/mL
same,Cmax,"[1]; male, human, in vivo, 0.6 mg, Cmax, Treatment-1 (day 1): colchicine 0.6 mg alone, fasted, fluconazole study, mean",1.93 ng/mL
same,AUC(0-t),"[1]; male, human, in vivo, AUCT GEOMETRIC LSMEANS, Treatment-2: colchicine 0.6 mg + fluconazole",20.4 ng·h/mL
same,AUC(0-t),"[1]; male, human, in vivo, AUCT, Treatment-2 (day 9): colchicine 0.6 mg + fluconazole 200 mg after double dose day 4, once daily days 5-8, fasted, mean",21.3 ng·h/mL
same,AUC(0-inf),"[1]; male, human, in vivo, AUC∞ GEOMETRIC LSMEANS, Treatment-2: colchicine 0.6 mg + fluconazole",24.4 ng·h/mL
same,AUC(0-inf),"[1]; male, human, in vivo, AUC∞, Treatment-2 (day 9): colchicine 0.6 mg + fluconazole 200 mg after double dose day 4, once daily days 5-8, fasted, mean",25.6 ng·h/mL
same,Cmax,"[1]; male, human, in vivo, Cmax GEOMETRIC LSMEANS, Treatment-2: colchicine 0.6 mg + fluconazole",2.05 ng/mL
same,Cmax,"[1]; male, human, in vivo, Cmax, Treatment-2 (day 9): colchicine 0.6 mg + fluconazole 200 mg after double dose day 4, once daily days 5-8, fasted, mean",2.3 ng/mL
same,Kel,[2]; [11],0.1589 h⁻¹
same,T1/2el,[2]; [11],5.51 h
same,CLTOT/F,[2]; [11],58.88 L/h
same,AUCT,[2]; [11],"10,040 pg · h/mL"
same,Cmax,[2]; [11],"2,170 pg/mL"
same,Kel,[2]; [12],0.0838 h⁻¹
same,T1/2el,[2]; [12],12.5 h
same,CLTOT/F,[2]; [12],34.7 L/h
same,AUCT,[2]; [12],"12,730 pg · h/mL"
same,Cmax,[2]; [12],"2,800 pg/mL"
same,Kel,[3]; [13],0.1491 h⁻¹
same,T1/2el,[3]; [13],6.28 h
same,CLTOT/F,[3]; [14],49.3 L/h
same,AUCT,[3]; [14],"11,990 pg · h/mL"
same,Cmax,[3]; [14],"2,780 pg/mL"
same,T1/2el,"[3]; Treatment-2: colchicine 0.6 mg (day 19) + ketoconazole 200 mg twice daily, arithmetic mean",26.06 h
same,CLTOT/F,[3]; [15],14.8 L/h
same,AUCT,[3]; [15],"34,380 pg · h/mL"
same,Cmax,[3]; [15],"5,270 pg/mL"
same,Kel,[4]; [16],0.1324 h⁻¹
same,T1/2el,[4]; [16],8.89 h
same,CLTOT/F,[4]; [16],46.8 L/h
same,AUCT,[4]; [16],"12,370 pg · h/mL"
same,Cmax,[4]; [16],"2,840 pg/mL"
same,Kel,[4]; [17],0.0296 h⁻¹
same,T1/2el,[4]; [17],30.31 h
same,CLTOT/F,[4]; [17],12.0 L/h
same,AUCT,[4]; [17],"41,950 pg · h/mL"
same,Cmax,[4]; [17],"8,440 pg/mL"
same,AUC(0-t),"clinical [5]; both, AUCT, Treatment-2 (day 9): colchicine 0.6 mg + cimetidine 800 mg after double dose day 4, once daily days 5-8, fasted, mean",18.1 ng·h/mL
same,CL/F,clinical [5]; 0.6 mg,465 mL/min
same,Tmax,clinical [5]; 0.6 mg,1.25 h
same,Vd/F,clinical [5]; 0.6 mg,1410 L
same,AUC(0-t),"clinical [5]; 0.6 mg, AUCT GEOMETRIC LSMEANS, Treatment-1: colchicine 0.6 mg alone, cimetidine study",19.3 ng·h/mL
same,AUC(0-t),"clinical [5]; 0.6 mg, AUCT, Treatment-1 (day 1): colchicine 0.6 mg alone, fasted, cimetidine study, mean",20.4 ng·h/mL
same,AUC(0-inf),"clinical [5]; 0.6 mg, AUC∞ GEOMETRIC LSMEANS, Treatment-1: colchicine 0.6 mg alone, cimetidine study",22.6 ng·h/mL
same,AUC(0-inf),"clinical [5]; 0.6 mg, AUC∞, Treatment-1 (day 1): colchicine 0.6 mg alone, fasted, cimetidine study, mean",24 ng·h/mL
same,Cmax,"clinical [5]; 0.6 mg, Cmax GEOMETRIC LSMEANS, Treatment-1: colchicine 0.6 mg alone, cimetidine study",2.78 ng/mL
same,Cmax,"clinical [5]; 0.6 mg, Cmax, Treatment-1 (day 1): colchicine 0.6 mg alone, fasted, cimetidine study, mean",3 ng/mL
same,AUC(0-t),"clinical [5]; AUCT GEOMETRIC LSMEANS, Treatment-2: colchicine 0.6 mg + cimetidine",16.7 ng·h/mL
same,AUC(0-inf),"clinical [5]; AUC∞ GEOMETRIC LSMEANS, Treatment-2: colchicine 0.6 mg + cimetidine",19.3 ng·h/mL
same,AUC(0-inf),"clinical [5]; AUC∞, Treatment-2 (day 9): colchicine 0.6 mg + cimetidine 800 mg after double dose day 4, once daily days 5-8, fasted, mean",21 ng·h/mL
same,Cmax,"clinical [5]; Cmax GEOMETRIC LSMEANS, Treatment-2: colchicine 0.6 mg + cimetidine",1.88 ng/mL
same,Cmax,"clinical [5]; Cmax, Treatment-2 (day 9): colchicine 0.6 mg + cimetidine 800 mg after double dose day 4, once daily days 5-8, fasted, mean",2.11 ng/mL
same,CL/F,clinical [6]; 0.6 mg,558 mL/min
same,Tmax,clinical [6]; 0.6 mg,1.5 h
same,Vd/F,clinical [6]; 0.6 mg,1410 L
same,AUC(0-t),"clinical [6]; 0.6 mg, AUCT GEOMETRIC LSMEANS, Treatment-1: colchicine 0.6 mg alone, propafenone study",16.2 ng·h/mL
same,AUC(0-t),"clinical [6]; 0.6 mg, AUCT, Treatment-1 (day 1): colchicine 0.6 mg alone, fasted, propafenone study, mean",16.6 ng·h/mL
same,AUC(0-inf),"clinical [6]; 0.6 mg, AUC∞ GEOMETRIC LSMEANS, Treatment-1: colchicine 0.6 mg alone, propafenone study",18.4 ng·h/mL
same,AUC(0-inf),"clinical [6]; 0.6 mg, AUC∞, Treatment-1 (day 1): colchicine 0.6 mg alone, fasted, propafenone study, mean",18.9 ng·h/mL
same,Cmax,"clinical [6]; 0.6 mg, Cmax GEOMETRIC LSMEANS, Treatment-1: colchicine 0.6 mg alone, propafenone study",2.05 ng/mL
same,Cmax,"clinical [6]; 0.6 mg, Cmax, Treatment-1 (day 1): colchicine 0.6 mg alone, fasted, propafenone study, mean",2.12 ng/mL
same,AUC(0-t),"clinical [6]; AUCT GEOMETRIC LSMEANS, Treatment-2: colchicine 0.6 mg + propafenone",16.4 ng·h/mL
same,AUC(0-t),"clinical [6]; AUCT, Treatment-2 (day 9): colchicine 0.6 mg + propafenone 225 mg after twice daily days 4-8, fasted, mean",16.8 ng·h/mL
same,AUC(0-inf),"clinical [6]; AUC∞ GEOMETRIC LSMEANS, Treatment-2: colchicine 0.6 mg + propafenone",18.4 ng·h/mL
same,AUC(0-inf),"clinical [6]; AUC∞, Treatment-2 (day 9): colchicine 0.6 mg + propafenone 225 mg after twice daily days 4-8, fasted, mean",18.9 ng·h/mL
same,Cmax,"clinical [6]; Cmax GEOMETRIC LSMEANS, Treatment-2: colchicine 0.6 mg + propafenone",2.18 ng/mL
same,Cmax,"clinical [6]; Cmax, Treatment-2 (day 9): colchicine 0.6 mg + propafenone 225 mg after twice daily days 4-8, fasted, mean",2.21 ng/mL
same,Colchicine passing unchanged in the urine,[7]; in vivo,up to 20%
same,Time to peak concentrations in the blood,"[7]; oral, patients with normal organ function",≤ 2 h
